Experimental data from patent publication US11890274B2 (JMM LICENSING LLC, priority 2015, dated 2024).
“Also recorded” adds a separate entry of the source.

What was measured:
[1] = test system: Human breast adenocarcinoma cell line (MCF-7 (HTB-22)); assay: 3H-thymidine uptake assay, breast cancer cell line; type: cell-based; conditions: for Average Cpm / Cpm 1 / Cpm 2 / Cpm 3 / dose proportionality of the effect alone, percent inhibition of 3H-uptake (FIG. 4): MCF-7; for Average Cpm / Cpm 1 / Cpm 2 / Cpm 3: 24 hours post treatment; for dose proportionality of the effect alone, percent inhibition of 3H-uptake (FIG. 4): drug alone at lower doses
Protocol: The cells were passaged onto 24-well plates at a concentration of 50,000 cells/well, in total medium volume of 1 mL (DMEM+10% FBS+0.01 mg/mL insulin+antibiotics). The cells were then allowed to attach and were incubated from 24 hours before treatment. Cells were then treated, in triplicate, with various concentrations of treatment articles. ^3H-thymidine (1 mCi/mL) was diluted to 1 μCi in 5 μL of medium (DMEM+10% FBS+0.01 mg/mL insulin+antibiotics) and then added to each well at 18-hr post treatment. […] Each well of cells was then lysed in 0.5 mL of 0.5N NaOH+0.5% SDS. Lysate was then transferred to scintillation tubes containing 1 mL if scintillation fluid for counting (3 min/sample).

[2] = cited from earlier work
[3] = test system: Human kidney clear cell carcinoma cell line Caki-I (HTB-46); assay: 3H-thymidine uptake assay, renal cell carcinoma; type: cell-based; conditions: for Average Cpm / Cpm 1 / Cpm 2 / Cpm 3: Caki-I, 24 hours post treatment; for Average cpm: pilot plating
Protocol: Pilot plating experiments using Human kidney clear cell carcinoma cell line Caki-I (HTB-46). […] 0.1% DMSO, the test article solvent, in media was the control.
The cells were passaged onto 24-well plates at a concentration of 30,000 cells/well, in total medium volume of 1 mL (RPMI 1640+10% FBS+antibiotics). The cells were then allowed to attach and were incubated from 24 hours before treatment. Cells were then treated, in triplicate, with various concentrations of treatment articles.
^3H-thymidine (1 mCi/mL) was diluted to 1 μCi in 5 μL of medium (RPMI 1640+10%/FBS+antibiotics) and then added to each well at either 18- or 42-hr post treatment, for the 24- and 48-hr time points respectively.
Cells were then washed three times with 1 ML of DPBS at 24- or 48-hr post treatment to remove unincorporated ^3H-thymidine. Each well of cells was then lysed in 0.5 mL of 0.5N NaOH+0.5% SDS. Lysate was then transferred to scintillation tubes containing 1 mL if scintillation fluid for counting (3 min/sample).

[4] = test system: plaques, tangles, and cognitive defects; conditions: mice; given before the establishment of plaques and tangles in the brain; cited from earlier work

[H]/N=C(/N=C(N)N)N(C)C [Metformin, 1,1-Dimethylbiguanide]
Average Cpm ([1]; dosage 0.05 nM): 1144 cpm
Cpm 1 ([1]; dosage 0.05 nM): 1267 cpm
Cpm 2 ([1]; dosage 0.05 nM): 1123 cpm
Cpm 3 ([1]; dosage 0.05 nM): 1041 cpm
Average Cpm ([1]; dosage 0.1 nM): 2092 cpm
Cpm 1 ([1]; dosage 0.1 nM): 2238 cpm
Cpm 2 ([1]; dosage 0.1 nM): 2595 cpm
Cpm 3 ([1]; dosage 0.1 nM): 1444 cpm
Average Cpm ([1]; dosage 0.5 nM): 1084 cpm
Cpm 1 ([1]; dosage 0.5 nM): 1283 cpm
Cpm 2 ([1]; dosage 0.5 nM): 1048 cpm
Cpm 3 ([1]; dosage 0.5 nM): 921 cpm
dose proportionality of the effect alone, percent inhibition of 3H-uptake (FIG. 4) [1]: not dose proportional; also recorded: not dose-proportional
standard dose therapeutic serum Cmax ([2]; standard dose): 1-2 microgram/mL

CN(Cc1cnc2nc(N)nc(N)c2n1)c1ccc(C(=O)N[C@@H](CCC(=O)O)C(=O)O)cc1 [Methotrexate, N-[4-[[(2,4-diamino-6-pteridinyl)methyl]methylamino]benzoyl]L-glutamic acid]
Average Cpm ([3]; dosage 100 nM): 11414 cpm
Cpm 1 ([3]; dosage 100 nM): 10636 cpm
Cpm 2 ([3]; dosage 100 nM): 12192 cpm
Cpm 3 ([3]; dosage 100 nM): 4932 cpm
Average cpm ([3]; 2.5 nm, 24-hr post treatment): 30659 cpm
Average cpm ([3]; 2.5 nm, 48-hr post treatment): 4811 cpm
Average cpm ([3]; 5 nm, 24-hr post treatment): 31148 cpm
Average cpm ([3]; 5 nm, 48-hr post treatment): 16772 cpm
Average cpm ([3]; 10 nm, 24-hr post treatment): 27266 cpm
Average cpm ([3]; 10 nm, 48-hr post treatment): 20251 cpm
Average cpm ([3]; 20 nm, 24-hr post treatment): 26144 cpm
Average cpm ([3]; 20 nm, 48-hr post treatment): 11273 cpm

CO[C@H]1C[C@@H]2CC[C@@H](C)[C@@](O)(O2)C(=O)C(=O)N2CCCC[C@H]2C(=O)O[C@H]([C@H](C)C[C@@H]2CC[C@@H](O)[C@H](OC)C2)CC(=O)[C@H](C)/C=C(\C)[C@@H](O)[C@@H](OC)C(=O)[C@H](C)C[C@H](C)/C=C/C=C/C=C/1C [Rapamycin]
Average Cpm ([3]; dosage 1 nM): 10651 cpm
Cpm 1 ([3]; dosage 1 nM): 10730 cpm
Cpm 2 ([3]; dosage 1 nM): 9692 cpm
Cpm 3 ([3]; dosage 1 nM): 11531 cpm
Average Cpm ([3]; dosage 5 nM): 8758 cpm
Cpm 1 ([3]; dosage 5 nM): 8771 cpm
Cpm 2 ([3]; dosage 5 nM): 7473 cpm
Cpm 3 ([3]; dosage 5 nM): 10030 cpm
Average Cpm ([3]; dosage 10 nM): 9111 cpm
Cpm 1 ([3]; dosage 10 nM): 9861 cpm
Cpm 2 ([3]; dosage 10 nM): 8987 cpm
Cpm 3 ([3]; dosage 10 nM): 8486 cpm
Average cpm ([3]; 5 nm, 24-hr post treatment): 14805 cpm
Average cpm ([3]; 5 nm, 48-hr post treatment): 8584 cpm
Average cpm ([3]; 10 nm, 24-hr post treatment): 12611 cpm
Average cpm ([3]; 10 nm, 48-hr post treatment): 7463 cpm
Average cpm ([3]; 20 nm, 24-hr post treatment): 12044 cpm
Average cpm ([3]; 20 nm, 48-hr post treatment): 6349 cpm
inhibition at 0.0005 µM ([1]; Homo sapiens, MCF7, read-out: inhibitory effect (percent inhibition of 3H-uptake), rapamycin alone at 0.5 nM): 25%
inhibition at 0.001 µM ([1]; Homo sapiens, MCF7, read-out: inhibitory effect (percent inhibition of 3H-uptake), rapamycin alone at 1.0 nM): 32%
Average Cpm ([1]; dosage 0.1 nM): 1181 cpm
Cpm 1 ([1]; dosage 0.1 nM): 1041 cpm
Cpm 2 ([1]; dosage 0.1 nM): 1516 cpm
Cpm 3 ([1]; dosage 0.1 nM): 986 cpm
Average Cpm ([1]; dosage 0.5 nM): 2543 cpm
Cpm 1 ([1]; dosage 0.5 nM): 2537 cpm
Cpm 2 ([1]; dosage 0.5 nM): 2524 cpm
Cpm 3 ([1]; dosage 0.5 nM): 2567 cpm
Average Cpm ([1]; dosage 1 nM): 2294 cpm
Cpm 1 ([1]; dosage 1 nM): 3114 cpm
Cpm 2 ([1]; dosage 1 nM): 1220 cpm
Cpm 3 ([1]; dosage 1 nM): 2548 cpm
dose proportionality of the effect alone, percent inhibition of 3H-uptake (FIG. 4) [1]: not dose proportional; also recorded: not dose-proportional
standard therapeutic serum trough levels ([2]; considered clinically relevant for current uses): 5 to 20 ng/mL
effect on plaques, tangles, and cognitive defects [4]: significantly reduce plaques, tangles, and cognitive defects
